Assay results from US20240226026A1, “BRANCHED TAIL LIPID COMPOUNDS AND COMPOSITIONS FOR INTRACELLULAR DELIVERY OF THERAPEUTIC AGENTS” (ModernaTX, Inc., priority 2021, published 2024).

What was measured:
[1] = Particle size (diameter) and polydispersity index of lipid nanoparticles; assay type: physicochemical; settings: nanoparticles comprising the lipid
Description: A Zetasizer Nano ZS (Malvern Instruments Ltd, Malvern, Worcestershire, UK) can be used to determine the particle size, the polydispersity index (PDI) and the zeta potential of the nanoparticle compositions in 1×PBS in determining particle size and 15 mM PBS in determining zeta potential.
Lipid nanoparticles (e.g., empty LNPs or loaded LNPs) may be characterized by a variety of methods. For example, microscopy (e.g., transmission electron microscopy or scanning electron microscopy) may be used to examine the morphology and size distribution of a nanoparticle composition. Dynamic light scattering or potentiometry (e.g., potentiometric titrations) may be used to measure zeta potentials. Dynamic light scattering may also be utilized to determine particle sizes. Instruments such as the Zetasizer Nano ZS (Malvern Instruments Ltd, Malvern, Worcestershire, UK) may also be used to measure multiple characteristics of a nanoparticle composition, such as particle size, polydispersity index, and zeta potential.
(§1) Lipid nanoparticles (e.g., empty LNPs or loaded LNPs) including DSPC as a phospholipid, cholesterol as a structural lipid, PL-II (e.g., PEG-1) as a PEG lipid, and a lipid according to Formula (I-1), (I), (I-A), (I-A1), (I-A2), (I-A3), or (I-A4) were prepared. In some embodiments, the lipid nanoparticles further included rhodamine-DOPE as a fluorescent lipid. Tables 2a, 2b, and 3 summarize the characteristics of the formulations.

[2] = Apparent pKa of lipid nanoparticles; assay type: physicochemical; settings: for Apparent pKa 95% CI: Table 2b, 95% confidence interval; for Apparent pKa: Table 2a, nanoparticles comprising the lipid
[3] = Lipid nanoparticle surface hydrophobicity by Generalized Polarization by Laurdan (N-GP); assay type: physicochemical; settings: for LNP surface hydrophobicity (N-GP*): Table 2b, nanoparticles comprising the lipid; for Lipid nanoparticle surface hydrophobicity (N-GP*): Table 2a, Laurdan, higher N-GP indicates a less polar surface
Text: Surface hydrophobicity of nanoparticles of the disclosure can be measured by Generalized Polarization by Laurdan (GPL). In this method, Laurdan, a fluorescent aminonaphthalene ketone lipid, is post-inserted into the nanoparticle surface and the fluorescence spectrum of Laurdan is collected to determine the normalized Generalized Polarization (N-GP). In some embodiments, nanoparticles formulated with lipids of the disclosure have a surface hydrophobicity expressed as N-GP of between about 0.5 and about 1.5. For example, in some embodiments, nanoparticles formulated with lipids of the disclosure have a surface hydrophobicity expressed as N-GP of about 0.5, about 0.6, about 0.7, about 0.8, about 0.9, about 1.0, about 1.1, about 1.2, about 1.3, about 1.4, or about 1.5. In some embodiments, nanoparticles formulated with lipids of the disclosure have a surface hydrophobicity expressed as N-GP of about 1.0 or about 1.1.

[4] = Encapsulation efficiency (% EE) of lipid nanoparticles; assay type: physicochemical; settings: nanoparticles comprising the lipid
Description: For nanoparticle compositions including an RNA, a QUANT-IT™ RIBOGREEN® RNA assay (Invitrogen Corporation Carlsbad, CA) can be used to evaluate the encapsulation of an RNA by the nanoparticle composition. The samples are diluted to a concentration of approximately 5 μg/mL in a TE buffer solution (10 mM Tris-HCl, 1 mM EDTA, pH 7.5). 50 μL of the diluted samples are transferred to a polystyrene 96 well plate and either 50 μL of TE buffer or 50 μL of a 2% Triton X-100 solution is added to the wells. The plate is incubated at a temperature of 37° C. for 15 minutes. The RIBOGREEN® reagent is diluted 1:100 in TE buffer, and 100 μL of this solution is added to each well. The fluorescence intensity can be measured using a fluorescence plate reader (Wallac Victor 1420 Multilablel Counter; Perkin Elmer, Waltham, MA) at an excitation wavelength of, for example, about 480 nm and an emission wavelength of, for example, about 520 nm. The fluorescence values of the reagent blank are subtracted from that of each of the samples and the percentage of free RNA is determined by dividing the fluorescence intensity of the intact sample (without addition of Triton X-100) by the fluorescence value of the disrupted sample (caused by the addition of Triton X-100).
The efficiency of encapsulation of a therapeutic and/or prophylactic describes the amount of therapeutic and/or prophylactic that is encapsulated or otherwise associated with a lipid nanoparticle (e.g., an empty LNP or a loaded LNP) after preparation, relative to the initial amount provided. The encapsulation efficiency is desired to be high (e.g., close to 100%). The encapsulation efficiency may be measured, for example, by comparing the amount of therapeutic and/or prophylactic in a solution containing a loaded LNP before and after breaking up the loaded LNP with one or more organic solvents or detergents. Fluorescence may be used to measure the amount of free therapeutic and/or prophylactic (e.g., RNA) in a solution. For the loaded LNPs formulated with lipids of the disclosure, the encapsulation efficiency of a therapeutic and/or prophylactic is at least 50%, for example 50%, 55%, 60%, 65%, 70%, 75%, 80%, 85%, 90%, 91%, 92%, 93%, 94%, 95%, 96%, 97%, 98%, 99%, or 100%. In some embodiments, the encapsulation efficiency is at least 80%. In some embodiments, the encapsulation efficiency is at least 90%. In some embodiments, the encapsulation efficiency of the therapeutic and/or prophylactic agent is between 80% and 100%.
as §1

CD-1 mice = test: Expression of hEPO induced by LNPs (mRNA encoding hEPO) administered to mice; assay type: in vivo; settings: Table 4a, serum, 6 h after intravenous injection; for Avg. hEPO Concentration (mIU/mL)* ± Avg. SD: ELLA Simple Plex Assay
Description: In some embodiments, hEPO concentrations were determined using an […] (ELLA) Simple Plex Assay (ProteinSimple) with a Human Erythroprotein cartridge. Standards for this assay are calibrated according to the 2. IRP WHO preparation. Nanoparticle compositions including mRNA are useful in the evaluation of the efficacy and usefulness of various formulations for the delivery of therapeutic and/or prophylactics. Higher levels of protein expression induced by administration of a composition including an mRNA will be indicative of higher mRNA translation and/or nanoparticle composition mRNA delivery efficiencies. As the non-RNA components are not thought to affect translational machineries themselves, a higher level of protein expression is likely indicative of a higher efficiency of delivery of the therapeutic and/or prophylactic by a given nanoparticle composition relative to other nanoparticle compositions or the absence thereof.
To assess potency of expression of lipids of the disclosure, the protein expression (hEPO) following administration of a nanoparticle comprising a lipid of the disclosure (e.g., a loaded LNP) to mice was measured.
Lipid nanoparticles (LNPs) including DSPC as a phospholipid, cholesterol as a structural lipid, PL-II (e.g., PEG-1) as a PEG lipid, a lipid according to Formula (I-1), (I), (I-A), (I-A1), (I-A2), (I-A3), or (I-A4), and an mRNA encoding hEPO were intravenously administered to CD-1 mice. The concentration of hEPO in serum was tested at 6 h after injection.

[5] = Table 2a, DSPC, cholesterol, PEG lipid

Row | Structure (SMILES) | Diameter (nm) ([1]; Table 2b) | PDI ([1]; Table 2b) | Diameter (nm) ([1]; Table 3) | PDI ([1]; Table 3) | Apparent pKa 95% CI [2] | LNP surface hydrophobicity (N-GP*) [3] | % EE ([4]; Table 2b) | % EE ([4]; Table 3) | Avg. hEPO Concentration (mIU/mL)* ± Avg. SD (CD-1 mice) | PDI ([1]; Table 2a) | Diameter (nm) [1, 5] | Apparent pKa [2] | Lipid nanoparticle surface hydrophobicity (N-GP*) [3] | % EE ([4]; Table 2a) | Avg. hEPO Concentration (mIU/mL) ± Avg. SD (CD-1 mice)
1 | CCCCCCCCC(CCCCCCCC)OC(=O)CCCCCCCN(CCCCCCCC(=O)OCCC(CCCC)CCCC)CCCNc1noc(N)n1 [Compound 2] | 68.6 nm | 0.214 | 52.6 nm | 0.163 | 6.437 to 6.559 | 1.21 | 99.2% | 97.6% | 3.38E+05 ± 9.49E+03 mIU/mL | – | – | – | – | – | –
2 | CCCCCCCCC(CCCCCCCC)OC(=O)CCCCCCCN(CCCCCCCC(=O)OCCC(CCCC)CCCC)CCCNS(=O)(=O)CCOC [Compound 3] | – | – | 80.9 nm | 0.139 | – | – | – | 95.6% | – | 0.099 | 72.1 nm | 6.549 | 1.00 | 89.4% | 7.11E+06 ± 1.75E+05 mIU/mL
3 | CCCCCCCCC(CCCCCCCC)OC(=O)CCCCCCCN(CCCCCCCC(=O)OCCC(CCCC)CCCC)CCCNC(=O)C1(C)CC1 [Compound 4] | 94.5 nm | 0.198 | 84.6 nm | 0.194 | 6.676 to 6.749 | 1.05 | 45.9% | 54.1% | 1.04E+07 ± 2.85E+05 mIU/mL | – | – | – | – | – | –
4 | CCCCCCCCC(CCCCCCCC)OC(=O)CCCCCCCN(CCCCCCCC(=O)OCCC(CCCC)CCCC)CCCNS(=O)(=O)CC [Compound 5] | – | – | 83.1 nm | 0.166 | – | – | – | 96.0% | – | 0.073 | 67.2 nm | 6.536 | 1.02 | 93.4% | 1.04E+07 ± 2.49E+05 mIU/mL
5 | CCCCCCCCC(CCCCCCCC)OC(=O)CCCCCCCN(CCCCCCCC(=O)OCCC(CCCC)CCCC)CCCNS(=O)(=O)Cc1ccon1 [Compound 6] | – | – | 65.9 nm | 0.163 | – | – | – | 96.7% | – | 0.042 | 60.2 nm | 6.323 | 0.99 | 93.2% | 5.41E+06 ± 6.06E+04 mIU/mL
6 | CCCCCCCCC(CCCCCCCC)OC(=O)CCCCCCCN(CCCCCCCC(=O)OCCC(CCCC)CCCC)CCCNc1ncccc1N [Compound 7] | 76.9 nm | 0.129 | 72.6 nm | 0.133 | 6.654 to 6.751 | 1.17 | 98.0% | 99.0% | 1.04E+06 ± 2.04E+04 mIU/mL | – | – | – | – | – | –
7 | CCCCCC(CCCCC)CCOC(=O)CCCCCCCN(CCCCCCCC(=O)OCCC(CCCC)CCCC)CCCNc1n[s+]([O-])nc1NC (centres unmarked) [Compound 8] | – | – | 90.9 nm | 0.217 | – | – | – | 97.1% | – | 0.144 | 86.9 nm | 6.934 | 0.99 | 89.6% | 4.95E+06 ± 1.24E+05 mIU/mL
8 | CCCCCC(CCCCC)CCOC(=O)CCCCCCCN(CCCCCCCC(=O)OCCC(CCCC)CCCC)CCCNc1noc(N)n1 [Compound 9] | 96.9 nm | 0.103 | 69.7 nm | 0.165 | 6.583 to 6.671 | 0.98 | 91.9% | 91.2% | 1.84E+06 ± 2.44E+04 mIU/mL | – | – | – | – | – | –
9 | CCCCCC(CCCCC)CCOC(=O)CCCCCCCN(CCCCCCCC(=O)OCCC(CCCC)CCCC)CCCNS(=O)(=O)CCOC [Compound 10] | 122.3 nm | 0.181 | 96.7 nm | 0.154 | 6.644 to 6.741 | 0.89 | 65.0% | 91.7% | – | 0.208 | 133.3 nm | 6.738 | 1.03 | 55.1% | 6.15E+06 ± 1.35E+05 mIU/mL
